Assay results taken from patent US9260382B2, “Methods of reducing virulence in bacteria” (priority 2010, dated 2016).

Test system: hrpA promoter (T3SS)
Assay: hrpA promoter-probe phrpA in Erwinia amylovora 273, flow cytometry
Format: cell-based
Conditions: Ea273 (phrpA), HIM + 100 μM compound, 6 h
Method: Wild-type Erwinia amylovora 273 was used in this study. The promoter-probe plasmid phrpA was constructed as follows. The hrpA promoter region of Erwinia amylovora 273 was amplified and cloned into pPROBE-NT to produce PhrpA. Plasmid PhrpA was electroporated into Erwinia amylovora 273. Expression of hrpA was analyzed using a FACS Calibur flow cytometer (BD Biosciences, CA). Wild-type Erwinia amylovora 273 containing phrpA was cultured in a hrp-inducing medium (HIM) containing dimethyl sulfoxide (DMSO; solvent of chemical compounds), or HIM supplemented with 100 μM of each compound, and promoter activity was assessed at 6 h and 9 h by measuring GFP intensity using flow cytometry (Table 19).

Point of comparison: `O=C(/C=C/c1ccc(-c2ccccc2)cc1)NO` [Compound 140, trans-4-Phenylcinnamohydroxamic acid], “Avg MFI ± SD, hrpA expression” value 101.7 ± 17.1. Against it:
- Cc1ccccc1/C=C/C(=O)O [Compound 018, trans-2-Methylcinnamic acid] — higher, 303.8 ± 8.7
- O=C(O)/C=C/c1c[nH]cn1 [Compound 014, trans-3-(4-Imidazolyl)acrylic acid] — higher, 874.6 ± 23.1
- O=C(NO)c1ccccc1O [Compound 135, Salicylhydroxamic acid] — within error, 124.7 ± 7.7
- O=C(O)/C=C/c1ccc([N+](=O)[O-])cc1 [Compound 028, trans-4-Nitrocinnamic acid] — lower, 14.4 ± 16.9
- O=C(O)[C@@H]1C[C@H]1c1ccccc1 (relative stereo) [Compound 010, trans-2-Phenylcyclopropane-1-carboxylic acid] — higher, 336.7 ± 28.1
- O=C(NO)[C@@H]1C[C@H]1c1ccccc1 (relative stereo) [Compound 162, trans-2-Phenylcyclopropane-1-carbohydroxamic acid] — higher, 711.1 ± 2.8
- O=C(Cc1ccccc1)c1ccc(C2CC2C(=O)O)cc1 (stereo not drawn) [Compound 165, trans-2-[(4′-Benzylcarbonyl]phenylcyclopropane-1-carboxylic acid] — higher, 292.8 ± 17.1
- O=C(/C=C/c1cccc([N+](=O)[O-])c1)NO [Compound 156, trans-3-Nitrocinnamohydroxamic acid] — within error, 67.8 ± 17.9
- O=C(/C=C/c1ccc(CO)cc1)NO [Compound 147, trans-4-Hydroxymethylcinnamohydroxamic acid] — higher, 688.6 ± 39.2
- O=C(/C=C/c1ccc(Br)cc1)NO [Compound 128, trans-4-Bromocinnamohydroxamic acid] — lower, 17.6 ± 2.8
- O=C(/C=C/c1ccccc1O)NO [Compound 129, trans-2-Hydroxycinnamohydroxamic acid] — higher, 187.9 ± 1.2
- O=C(CCc1ccccc1)NO [Compound 139, 3-Phenylpropionohydroxamic acid] — higher, 306.3 ± 11.9
- COc1ccccc1/C=C/C(=O)NO [Compound 159, trans-2-Methoxycinnamohydroxamic acid] — higher, 256.3 ± 10.8
- O=C(/C=C/c1ccccc1[N+](=O)[O-])NO [Compound 157, trans-2-Nitrocinnamohydroxamic acid] — within error, 104.6 ± 7.3
- O=C(O)/C=C/c1ccc(C(=O)Nc2ccccc2)cc1 [Compound 166, trans-4-(Carbo-phenylamide)cinnamic acid] — within error, 105.0 ± 53.0
- O=C(/C=C/c1ccc(F)cc1)NO [Compound 141, trans-4-Fluorocinnamohydroxamic acid] — higher, 167.6 ± 4.7
- Cc1cccc(/C=C/C(=O)O)c1 [Compound 019, trans-3-Methylcinnamic acid] — higher, 311.5 ± 18.6
- O=C(O)COc1ccccc1 [Compound 009, Phenoxyacetic acid] — higher, 342.7 ± 24.8
- O=C(O)CCc1ccc(O)cc1 [Compound 007, 3-(4-Hydroxyphenyl)propionic acid] — higher, 1093.1 ± 62.8
- O=C(/C=C/c1ccccc1Br)NO [Compound 152, trans-2-Bromocinnamohydroxamic acid] — lower, 15.7 ± 2.3
- O=C(/C=C/c1cccc(O)c1)NO [Compound 130, trans-3-Hydroxycinnamohydroxamic acid] — higher, 431.4 ± 4.1
- O=C(O)/C=C/c1ccc(Cl)cc1 [Compound 023, trans-4-Chlorocinnamic acid] — higher, 171.8 ± 7.7
- NNC(=O)/C=C/c1ccc(O)cc1 [Compound 133, trans-3-(4-Hydroxyphenyl)acrylohydrazid] — higher, 1716.5 ± 33.1
- COC(=O)/C=C/c1ccccc1 [Compound 030, Methyl trans-cinnamate] — higher, 674.8 ± 252.1
- O=Cc1ccc(/C=C/C(=O)NO)cc1 [Compound 146, trans-4-Formylcinnamohydroxamic acid] — higher, 414.3 ± 31.6
- O=C(O)/C=C/c1cccc(O)c1 [Compound 005, meta-coumaric acid] — higher, 1212 ± 47.6
- O=C(O)CCc1ccccc1 [Compound 008, Hydrocinnamic acid] — higher, 395.9 ± 16.0
- O=C(O)/C=C/c1ccc2ccccc2c1 [Compound 035, 3-(2-naphthyl) acrylic acid] — higher, 178.9 ± 9.7
- O=C(O)/C=C/c1ccc(S)cc1 [Compound 026, trans-4-Mercaptocinnamic acid] — higher, 159.7 ± 22.0
- O=C(COc1ccccc1)NO [Compound 143, 2-Phenoxyacetohydroxamic acid] — higher, 228.7 ± 4.6
- Cc1ccccc1/C=C/C(=O)NO [Compound 160, trans-2-Methylcinnamohydroxamic acid] — higher, 122.7 ± 1.9
- O=C(O)/C=C/c1ccccc1Cl [Compound 021, trans-2-Chlorocinnamic acid] — higher, 225.7 ± 35.8
- CN(C(=O)c1ccc(/C=C/C(=O)O)cc1)c1ccccc1 [Compound 167, trans-4-(Carbo-N-methyl-phenylamide)cinnamic acid] — higher, 729.7 ± 67.5
- O=C(/C=C/c1ccco1)NO [Compound 163, trans-3-(2-Furyl)acrylhydroxamic acid] — higher, 231.5 ± 7.0
- O=C(/C=C/c1cccs1)NO [Compound 161, trans-3-(2-Thienyl)acrylhydroxamic acid] — higher, 132.4 ± 13.2
- O=C(/C=C/c1ccc(Cl)cc1)NO [Compound 148, trans-4-Chlorocinnamohydroxamic acid] — lower, 22.5 ± 3.7
- O=C(O)/C=C/c1cccc(Cl)c1 [Compound 022, trans-3-Chlorocinnamic acid] — higher, 332.9 ± 16.9
- Cc1ccc(/C=C/C(=O)O)cc1 [Compound 020, trans-4-Methylcinnamic acid] — higher, 208.5 ± 2.7
- O=C(O)/C=C/c1c[nH]c2ccccc12 [Compound 012, trans-3-Indoleacrylic acid] — lower, 33.7 ± 8.9
- O=C(O)/C=C/c1ccc(O)c(O)c1 [Compound 003, 3,4-Dihydroxycinnamic acid] — higher, 783.4 ± 80.2
- O=C(/C=C/c1cccc(Br)c1)NO [Compound 151, trans-3-Bromocinnamohydroxamic acid] — lower, 6.3 ± 1.2
- Benzoic acid [Compound 034] — lower, 48.1 ± 5.4
- O=C(/C=C/c1cccc(F)c1)NO [Compound 153, trans-3-Fluorocinnamohydroxamic acid] — higher, 177.1 ± 11.9
- O=C(/C=C/c1ccc(O)cc1)NCCO [Compound 138, N-(2-Hydroxyethyl)-4-hydroxycinnamamide] — higher, 1474.5 ± 30.4
- O=C(O)c1ccc(O)cc1 [Compound 144, 4-Hydroxybenzoic acid] — higher, 434.4 ± 22.1
- COc1ccc(/C=C/C(=O)O)cc1 [Compound 017, trans-4-Methoxycinnamic acid] — higher, 132.5 ± 5.5
- O=C(O)c1cccc(O)c1 [Compound 145, 3-Hydroxybenzoic acid] — higher, 559.4 ± 23.6
- NC(=O)/C=C/c1ccccc1 [Compound 031, trans-Cinnamamide] — within error, 98.0 ± 18.4

Same assay, conditions: Ea273 (phrpA), HIM + 100 μM compound, 9 h

Point of comparison: `O=C(/C=C/c1ccccc1[N+](=O)[O-])NO` [Compound 157, trans-2-Nitrocinnamohydroxamic acid], “Avg MFI ± SD, hrpA expression” value 96.2 ± 3.3. Against it:
- Cc1ccccc1/C=C/C(=O)O [Compound 018, trans-2-Methylcinnamic acid] — higher, 262.5 ± 9.3
- O=C(O)/C=C/c1c[nH]cn1 [Compound 014, trans-3-(4-Imidazolyl)acrylic acid] — higher, 839.2 ± 17.6
- O=C(NO)c1ccccc1O [Compound 135, Salicylhydroxamic acid] — higher, 147.8 ± 4.3
- O=C(O)/C=C/c1ccc([N+](=O)[O-])cc1 [Compound 028, trans-4-Nitrocinnamic acid] — lower, 4.0 ± 0.3
- O=C(O)[C@@H]1C[C@H]1c1ccccc1 (relative stereo) [Compound 010, trans-2-Phenylcyclopropane-1-carboxylic acid] — higher, 293.0 ± 4.7
- O=C(NO)[C@@H]1C[C@H]1c1ccccc1 (relative stereo) [Compound 162, trans-2-Phenylcyclopropane-1-carbohydroxamic acid] — higher, 701.9 ± 2.8
- O=C(Cc1ccccc1)c1ccc(C2CC2C(=O)O)cc1 (stereo not drawn) [Compound 165, trans-2-[(4′-Benzylcarbonyl]phenylcyclopropane-1-carboxylic acid] — higher, 229.4 ± 15.0
- O=C(/C=C/c1cccc([N+](=O)[O-])c1)NO [Compound 156, trans-3-Nitrocinnamohydroxamic acid] — within error, 99.5 ± 4.9
- O=C(/C=C/c1ccc(CO)cc1)NO [Compound 147, trans-4-Hydroxymethylcinnamohydroxamic acid] — higher, 746.8 ± 96.3
- O=C(/C=C/c1ccc(Br)cc1)NO [Compound 128, trans-4-Bromocinnamohydroxamic acid] — lower, 5.7 ± 2.2
- O=C(/C=C/c1ccccc1O)NO [Compound 129, trans-2-Hydroxycinnamohydroxamic acid] — higher, 181.0 ± 0.7
- O=C(CCc1ccccc1)NO [Compound 139, 3-Phenylpropionohydroxamic acid] — higher, 286.3 ± 10.0
- COc1ccccc1/C=C/C(=O)NO [Compound 159, trans-2-Methoxycinnamohydroxamic acid] — higher, 337.3 ± 15.2
- O=C(O)/C=C/c1ccc(C(=O)Nc2ccccc2)cc1 [Compound 166, trans-4-(Carbo-phenylamide)cinnamic acid] — higher, 221.2 ± 22.2
- O=C(/C=C/c1ccc(F)cc1)NO [Compound 141, trans-4-Fluorocinnamohydroxamic acid] — higher, 119.0 ± 7.1
- Cc1cccc(/C=C/C(=O)O)c1 [Compound 019, trans-3-Methylcinnamic acid] — higher, 251.6 ± 13.3
- O=C(O)COc1ccccc1 [Compound 009, Phenoxyacetic acid] — higher, 269.9 ± 15.2
- O=C(O)CCc1ccc(O)cc1 [Compound 007, 3-(4-Hydroxyphenyl)propionic acid] — higher, 1211.0 ± 58.7
- O=C(/C=C/c1ccccc1Br)NO [Compound 152, trans-2-Bromocinnamohydroxamic acid] — lower, 11.1 ± 1.2
- O=C(/C=C/c1cccc(O)c1)NO [Compound 130, trans-3-Hydroxycinnamohydroxamic acid] — higher, 491.0 ± 10.2
- O=C(O)/C=C/c1ccc(Cl)cc1 [Compound 023, trans-4-Chlorocinnamic acid] — higher, 125.8 ± 3.9
- NNC(=O)/C=C/c1ccc(O)cc1 [Compound 133, trans-3-(4-Hydroxyphenyl)acrylohydrazid] — higher, 2780.9 ± 58.5
- COC(=O)/C=C/c1ccccc1 [Compound 030, Methyl trans-cinnamate] — higher, 668.5 ± 31.2
- O=Cc1ccc(/C=C/C(=O)NO)cc1 [Compound 146, trans-4-Formylcinnamohydroxamic acid] — higher, 435.2 ± 36.2
- O=C(O)/C=C/c1cccc(O)c1 [Compound 005, meta-coumaric acid] — higher, 1439.1 ± 97.9
- O=C(O)CCc1ccccc1 [Compound 008, Hydrocinnamic acid] — higher, 342.0 ± 11.7
- O=C(O)/C=C/c1ccc2ccccc2c1 [Compound 035, 3-(2-naphthyl) acrylic acid] — within error, 89.0 ± 6.2
- O=C(O)/C=C/c1ccc(S)cc1 [Compound 026, trans-4-Mercaptocinnamic acid] — lower, 44.7 ± 2.7
- O=C(COc1ccccc1)NO [Compound 143, 2-Phenoxyacetohydroxamic acid] — higher, 178.5 ± 27.1
- Cc1ccccc1/C=C/C(=O)NO [Compound 160, trans-2-Methylcinnamohydroxamic acid] — within error, 95.7 ± 3.7
- O=C(O)/C=C/c1ccccc1Cl [Compound 021, trans-2-Chlorocinnamic acid] — higher, 192.7 ± 8.6
- CN(C(=O)c1ccc(/C=C/C(=O)O)cc1)c1ccccc1 [Compound 167, trans-4-(Carbo-N-methyl-phenylamide)cinnamic acid] — higher, 707.3 ± 55.9
- O=C(/C=C/c1ccco1)NO [Compound 163, trans-3-(2-Furyl)acrylhydroxamic acid] — higher, 196.5 ± 14.9
- O=C(/C=C/c1cccs1)NO [Compound 161, trans-3-(2-Thienyl)acrylhydroxamic acid] — higher, 145.0 ± 11.7
- O=C(/C=C/c1ccc(Cl)cc1)NO [Compound 148, trans-4-Chlorocinnamohydroxamic acid] — lower, 21.8 ± 25.2
- O=C(O)/C=C/c1cccc(Cl)c1 [Compound 022, trans-3-Chlorocinnamic acid] — higher, 238.3 ± 8.7
- Cc1ccc(/C=C/C(=O)O)cc1 [Compound 020, trans-4-Methylcinnamic acid] — higher, 145.4 ± 3.7
- O=C(/C=C/c1ccc(-c2ccccc2)cc1)NO [Compound 140, trans-4-Phenylcinnamohydroxamic acid] — lower, 82.8 ± 4.3
- O=C(O)/C=C/c1c[nH]c2ccccc12 [Compound 012, trans-3-Indoleacrylic acid] — lower, 47.9 ± 6.9
- O=C(O)/C=C/c1ccc(O)c(O)c1 [Compound 003, 3,4-Dihydroxycinnamic acid] — higher, 787.3 ± 25.2
- O=C(/C=C/c1cccc(Br)c1)NO [Compound 151, trans-3-Bromocinnamohydroxamic acid] — lower, 3.9 ± 1.2
- Benzoic acid [Compound 034] — lower, 32.6 ± 1.9
- O=C(/C=C/c1cccc(F)c1)NO [Compound 153, trans-3-Fluorocinnamohydroxamic acid] — higher, 110.6 ± 3.2
- O=C(/C=C/c1ccc(O)cc1)NCCO [Compound 138, N-(2-Hydroxyethyl)-4-hydroxycinnamamide] — higher, 1907.0 ± 39.8
- O=C(O)c1ccc(O)cc1 [Compound 144, 4-Hydroxybenzoic acid] — higher, 424.7 ± 24.8
- COc1ccc(/C=C/C(=O)O)cc1 [Compound 017, trans-4-Methoxycinnamic acid] — lower, 76.4 ± 2.7
- O=C(O)c1cccc(O)c1 [Compound 145, 3-Hydroxybenzoic acid] — higher, 529.9 ± 32.0
- NC(=O)/C=C/c1ccccc1 [Compound 031, trans-Cinnamamide] — lower, 88.1 ± 4.6
